The nature of data set [1]: ^1O2 generation upon X-ray irradiation (ESR, TEMP trap). The following applies: X-ray irradiation, ESR. In kind it is physicochemical. How it is done:
To study ^1O2 generation, a mixture of DPAS or IDPAS (100 M) and TEMP (10 mM) in PBS (0.01 M, pH 7.4, 50% DMSO) was irradiated by X-rays at 2 Gy (100 mGy s^−1 for 20 s) or 5 mGy (250 μGy s^−1 for 20 s). The ESR signals of the mixture were recorded with a Bruker A300 instrument. The ESR signal of the free radical 2,2,6,6-tetramethyl-1-piperidinyloxyl (g=2.0060) was generated by the reaction of ^1O2 with TEMP. The ^1O2 quencher NaN3 (1 mM) was added to validate the afterglow mechanism of IDPASu. Additionally, other commercially available radio sensitizers (such as acridine orange, hematoporphyrin and verteporfin) were measured and compared. The procedure of block depths was similar to that of the tissue penetration depth study and the ^1O2 generation for different depth tissues was measured. The ESR signal changes of MRAP in the absence or presence of CatB were measured in a similar way. The ESR signals of 2,2,6,6-tetramethyl-1-piperidinyloxyl from the reaction of ^1O2 with TEMP were plotted as a function of the concentration of ^1O2, which was generated by the addition of NaOCl to H2O2. This generated the standard curve between the ESR intensity and ^1O2 concentration.

A short description of data set [2]: O2·^− detection with DHR123 upon X-ray irradiation. Particulars: elevated radiation dosage. It counts as physicochemical. How it is done: To study other ROS generation, fluorescence sensors DHR123 (for O2·^− detection) and HPF (for ·OH detection) were used. For O2·^− detection, DHR123 (10 PM) was added to a solution of IDPASu (10 M) in PBS (0.01 M pH 7.4, 50% DMSO), followed by X-ray irradiation at different doses of 5 mGy (250 μGy s^−1 for 20 s) and 2 Gy (100 mGy s^1 for 20 s). The fluorescence changes in DHR123 were recorded at λex of 505 nm and λem of 534 nm. For ·OH detection, HPF ([…]) was added in a solution of IDPASu (10 M) in PBS (0.01 M, pH 7.4, 50% DMF), followed by X-ray irradiation at different doses, namely, 5 mGy (250 μGy s^−1 for 20 s) and 2 Gy (100 mGy s^−1 for 20 s). The fluorescence changes in HPF were collected at ex of 450 nm and λem of 515 nm. The ROS production was calculated by the corresponding standard curve.

Data set [3] can be described thus: Afterglow through chicken breast tissue (tissue penetration depth study). It counts as physicochemical. How it is done: IDPASu (100 M, 100 l) solution in a round cap with a diameter of 1 cm was prepared and placed under the chicken breast tissue with different thicknesses (0, 1.0, 2.5, 5.0, 10.0 and 15.0 cm). To avoid the influence of afterglow intensity differences on tissue penetration, the X-ray source (Moxtek, Inc.) and xenon lamp (PLS-SEX300D, Beijing Perfectlight Technology Co., Ltd.) were optimized to ensure that all the samples at 0 cm (without coverage) received the same dose of X-rays (5 mGy, 250 μGy s^−1 for 20 s) or light (180 mW cm^−2 for 20 s) and thus the same afterglow intensity. After the cessation of irradiation, radio afterglow or photoafterglow was detected with or without the chicken breast tissues using the IVIS bioluminescence mode with an open filter and acquisition time of 120 s.
To induce afterglow, IDPASu was irradiated with X-ray or light through chicken breast tissues before signal detection (FIGS. 11a-b). To eliminate the influence of intensity difference on tissue penetration, X-ray and light irradiation were optimized to ensure similar intensity without tissue coverage. […] Radio afterglow of IDPASu was inducible and detectable even through ~15 cm tissue, showing ~4.2-fold higher signal than that of IDPASu without X-ray irradiation and tissue (FIG. 11d).

A short description of data set [4]: Cell viability of U87 cells with IDPASu (Cell Counting Kit-8). It counts as cell-based, human. The following applies: human, u87 cells; 100 μM; read-out: cell viability without X-ray. The procedure: (§1) All the cells were purchased from the American Type Culture Collection, including CatB-negative cells (mouse embryonic fibroblasts 3T3 cells, RAW 264.7, 293-T and human monocytic THP-1 cells) and CatB-positive cells (human U87 glioblastoma cells, U87-luciferase cells, A549 lung epithelial cells and 4T1 and melanoma B16-F10). All the cells were cultured
(§2) in Dulbecco's modified Eagle medium (Gibco) or RPMI 1640 medium containing 10.0% foetal bovine serum (Gibco) and 0.1% ciprofloxacin in a humidified atmosphere containing 5.0% CO2 and 95.0% air at 37° C. To study the cell viability of IDPASu, U87 cells (1×10^4 per well) were seeded on 96-well plates and incubated for 24 h. IDPASu at different concentrations (0, 2.5, 5.0, 10.0, 25.0, 50.0 and 100.0 μM) were added to the U87 cell medium for 12 h incubation. After incubation, 96-well plates were covered with chicken breast tissues with different thicknesses (0, 5, 8 and 15 cm), followed by X-ray irradiation. The X-ray setup was optimized to ensure the cells in all the wells received similar dose of X-ray irradiation (2 Gy) before chicken breast tissue coverage (0 cm). After irradiation, the cells were further incubated for 12 h, followed by the colorimetric Cell Counting Kit-8 assay. Briefly, Cell Counting Kit-8 solution (10 l, Dojindo Molecular Technologies) was added into the cell medium (100 l) for 2 h incubation, and the absorbance of medium at 450 nm was recorded using a microplate reader (ReadMax 1900). The cells without IDPASu incubation and X-ray irradiation were set as control. The cell viability (%) was calculated by the absorbance of treated cells over that of the control cells. To test the cell viability of activatable MRAP, U87 and 3T3 cells (1×10^4 per well) were seeded on 96-well plates and incubated for 24 h. The inhibitor group was pre-treated with a CatB inhibitor (CA-074, 1 mM) for 10 h incubation. MRAP at different concentrations (0, 2.5, 5.0, 10.0, 25.0, 50.0 and 100.0 µM) were added to the U87 and 3T3 cell medium for 12 h incubation. […]

Another data set relates to U87 cells. The description is as above. In kind it is cell-based, human. The procedure: as §1, §2

As a reminder, the viability is the share of living cells, or the viability signal relative to a control. As to `COC(=C1C2CC3CC(C2)CC1C3)c1cc(O)c(I)cc1/C=C/C1=CC(=C(C#N)C#N)c2ccccc2S1` [IDPASu], the “^1O2 generation / radiodynamic activity” value in data set [1] was “the highest”. Further, the “O2·^− generation” value in data set [2] is reported as “only minimal O2·^− could be generated”. In addition, the “radio afterglow signal through ~15 cm tissue versus IDPASu without X-ray irradiation and tissue” value in data set [3] (15 cm chicken breast tissue) is ~ 4.2 fold. Moreover, in data set [3] (X-ray 0.005 Gy), the “penetration depth, Detection with tissue (induction without tissue)” value stood at 15 cm; the “penetration depth, Induction and detection through tissue” value amounted to 5 cm. Also, the “radio afterglow intensity at tissue depth of 1 cm” value in data set [3] (induction by X-ray through tissue, detection without tissue) is ~ 1.79×10^6 photons s^−1 cm^−2 sr^−1. Further, the “photoafterglow intensity at tissue depth of 1 cm” value in data set [3] (induction by light through tissue, detection without tissue) is recorded as 7.20×10^4 photons s^−1 cm^−2 sr^−1. In data set [4], the viability at 24 h, 100 µM worked out at 91%. Further, the “cell viability under X-ray irradiation” value in the data set on U87 cells (100 μM, X-ray 2 Gy, 100 mGy s^−1 for 20 s, no tissue) was found to be 1.4%. Further, the “cell viability under X-ray irradiation at tissue depth of 15 cm” value with U87 cells (X-ray through 15 cm chicken breast tissue) was found to be 31.9%.

The values above are taken from patent US20260335468A1, “MOLECULAR RADIOAFTERGLOW PROBES FOR CANCER RADIODYNAMIC THERANOSTICS” (NANYANG TECHNOLOGICAL UNIVERSITY, priority 2023, published 2026).
